IC50 data for 32 compounds are collected here from patent US10131664B2 (Celgene Quanticel Research, Inc., priority 2013, dated 2018).

The IC50 is the concentration needed to halve the response being measured.

In one experiment the test system is THP-1 (AML) cells. Put plainly: LSD1 CD11b cellular assay (flow cytometry). The experiment is classed as cell-based. The note with it: Homo sapiens, 96 h; CD11b expression in THP-1 (AML) cells, flow cytometry, 4 days incubation; read-out: Cellular IC50. On the procedure:
To analyze LSD1 inhibitor efficacy in cells, a CD11b flow cytometry assay was performed. LSD1 inhibition induces CD11b expression in THP-1 (AML) cells which can be measured by flow cytometry. […] LSD1 test compounds were serially diluted in DMSO. The dilutions were added to each well accordingly to a final concentration of 0.2% DMSO. The cells were incubated at 37° C. in 5% CO2 for 4 days. 250 μL of each well was transferred to a well in a 96 well round bottom plate. The plate was centrifuged at 1200 rpm at 4 degrees Celsius in a Beckman Coulter Alegra 6KR centrifuge for 5 min. The media was removed leaving the cells at the bottom of the wells. The cells were washed in 100 μL cold HBSS (Hank's Balanced Salt Solution) plus 2% BSA (Bovine Serum Albumin) solution and centrifuged at 1200 rpm at 4° C. for 5 min. The wash was removed. […] The cells were centrifuged and washed two times in 100 μl HBSS plus 2% BSA. After the final spin the cells were resuspended in 100 μL HBSS plus 2% BSA containing 1 μg/mL DAPI (4′,6-diamidino-2-phenylindole). The cells were then analyzed by flow cytometry in a BD FACSAria machine. Cells were analyzed for CD11b expression. The percent of CD11b expressing cells for each inhibitor concentration was used to determine an IC50 curve for each compound analyzed.
In general terms: A flow cytometer gives signals particle by particle.

The target in a further experiment is full-length human LSD1 (Homo sapiens (Human), UniProt O60341). The experiment is described as follows: In vitro enzyme inhibition assay LSD-1 (TR-FRET). The experiment is classed as biochemical. To be noted: TR-FRET, 0.1 nM LSD1, 50 nM H3K4me1-biotin peptide, 2 μM FAD, pH7.3; read-out: LSD1 IC50. As to the method:
This assay determines the ability of a test compound to inhibit LSD1 demethylase activity.
The enzymatic assay of LSD1 activity is based on Time Resolved-Fluorescence Resonance Energy Transfer (TR-FRET) detection.
The ability of the compounds disclosed herein to inhibit LSD1 activity was quantified and the respective IC50 value was determined. Table 5 provides the IC50 values of various substituted heterocyclic compounds disclosed herein.

Each structure is given as a SMILES string.

For the compound `N#Cc1ccc(-c2nc(N3CCC(N)CC3)ncc2-c2cnn(CC(F)(F)F)c2)cc1` [Example 61, 4-[2-(4-aminopiperidin-1-yl)-5-[1-(2,2,2-trifluoroethyl)pyrazol-4-yl]pyrimidin-4-yl]benzonitrile], the IC50 in the experiment with THP-1 (AML) cells and at full-length human LSD1 was below 100 nM each time. Regarding `N#Cc1ccc(-c2nc(N3CCC(N)CC3)ncc2-c2cnn(CC3CCOC3)c2)cc1` (stereo not drawn) [Example 78, 4-[2-(4-aminopiperidin-1-yl)-5-[1-(oxolan-3-ylmethyl)pyrazol-4-yl]pyrimidin-4-yl]benzonitrile], the IC50 was 100 to 1000 nM with THP-1 (AML) cells and below 100 nM on full-length human LSD1.

On to `Cc1ccc(-c2cnc(NC3CCNCC3)nc2-c2ccc(C#N)cc2)cc1` [Example 30, 4-[5-(4-methylphenyl)-2-[(piperidin-4-yl)amino]pyrimidin-4-yl]benzonitrile], for which the IC50 at full-length human LSD1 was below 100 nM. Consider `CNc1nc(N2CCC(N)CC2)nc(-c2ccc(C#N)c(F)c2)c1-c1cnc(N(C)C)nc1` [Example 168, 4-[2-(4-aminopiperidin-1-yl)-5-[2-(dimethylamino)pyrimidin-5-yl]-6-(methylamino)pyrimidin-4-yl]-2-fluorobenzonitrile], for which the IC50 in the experiment with THP-1 (AML) cells and at full-length human LSD1 was below 100 nM each time. As to `Cc1ccc(-c2nc3cnn(CC4CCNC4)c3cc2-c2ccc(C#N)cc2)cc1` (stereo not drawn) [Example 13], the IC50 with THP-1 (AML) cells and on full-length human LSD1 was below 100 nM throughout. In the case of `COc1nc(N2CCC(N)CC2)nc(-c2ccc(C#N)c(F)c2)c1-c1cnc2c(cnn2C)c1` [Example 159, 4-[2-(4-aminopiperidin-1-yl)-6-methoxy-5-{1-methyl-1H-pyrazolo[3,4-b]pyridin-5-yl}pyrimidin-4-yl]-2-fluorobenzonitrile], the IC50 with THP-1 (AML) cells and at full-length human LSD1 was below 100 nM each time. With `Cc1ccc(-c2cnc(N3CCC4CNCC4C3)nc2-c2ccc(C#N)cc2)cc1` (stereo not drawn) [Example 22, 4-[5-(4-methylphenyl)-2-{octahydro-1H-pyrrolo[3,4-c]pyridin-5-yl}pyrimidin-4-yl]benzonitrile], the IC50 in the experiment with THP-1 (AML) cells and at full-length human LSD1 was below 100 nM in each case. As to `Cn1nnc2cc(-c3cnc(N4CCC(N)CC4)nc3-c3ccc(C#N)c(F)c3)ccc21` [Example 96, 4-[2-(4-aminopiperidin-1-yl)-5-(1-methylbenzotriazol-5-yl)pyrimidin-4-yl]-2-fluorobenzonitrile], the IC50 with THP-1 (AML) cells and at full-length human LSD1 was below 100 nM in each case. Take `Cc1nn(C)cc1-c1cnc(N2CCC3CNCC3CC2)nc1-c1ccc(C#N)cc1` (stereo not drawn) [Example 118, 4-[2-(2,3,3a,4,5,7,8,8a-octahydro-1H-pyrrolo[3,4-d]azepin-6-yl)-5-(1,3-dimethylpyrazol-4-yl)pyrimidin-4-yl]benzonitrile]: the IC50 on full-length human LSD1 is below 100 nM. In the case of `Cc1ccc(-c2cnc(N3CC4CNCC(C3)O4)nc2-c2ccc(C#N)cc2)cc1` [Example 41, 4-[5-(4-methylphenyl)-2-{9-oxa-3,7-diazabicyclo[3.3.1]nonan-3-yl}pyrimidin-4-yl]benzonitrile], the IC50 on full-length human LSD1 was in the range of 100 to 1000 nM. The same measure, in the same setting: the same measure for `Cc1ccc(-c2cnc(N3CCC4(CCNCC4)C3)nc2-c2ccc(C#N)cc2)cc1` [Example 36, 4-(2-{2,8-diazaspiro[4.5]decan-2-yl}-5-(4-methylphenyl)pyrimidin-4-yl)benzonitrile]: below 100 nM; for `Cn1cc2nc(-c3cnc(N4CCC(N)CC4)nc3-c3ccc(C#N)cc3)ncc2n1` [Example 86]: 100 to 1000 nM; for `Cc1ccc(-c2cnc(N3CCC4(CCNC4)C3)nc2-c2ccc(C#N)cc2)cc1` (stereo not drawn) [Example 35, 4-(2-{2,7-diazaspiro[4.4]nonan-2-yl}-5-(4-methylphenyl)pyrimidin-4-yl)benzonitrile]: below 100 nM. `N#Cc1ccc(-c2nc(N3CCC4(CCNC4)CC3)ncc2-c2cnn(CC(F)(F)F)c2)cc1` [Example 121, 4-[2-(2,8-diazaspiro[4.5]decan-8-yl)-5-[1-(2,2,2-trifluoroethyl)pyrazol-4-yl]pyrimidin-4-yl]benzonitrile]: at full-length human LSD1, the IC50 is below 100 nM. With `N#Cc1ccc(-c2nc(N3CCC(N)CC3)ncc2-c2ccc3ncnn3c2)cc1` [Example 127, 4-[2-(4-aminopiperidin-1-yl)-5-([1,2,4]triazolo[1,5-a]pyridin-6-yl)pyrimidin-4-yl]benzonitrile], the IC50 on full-length human LSD1 lay within 100 to 1000 nM. Still for that read-out and setting: as for `N#Cc1ccc(-c2nc(N3CCC(N)CC3)ncc2-c2ccn3ncnc3c2)cc1` [Example 81, 4-[2-(4-aminopiperidin-1-yl)-5-([1,2,4]triazdo[1,5-a]pyridin-7-yl)pyrimidin-4-yl]benzonitrile], the figure is 100 to 1000 nM; as for `N#Cc1ccc(-c2cc3c(ccn3CC3(F)CCNC3)nc2N2CCOCC2)cc1` (stereo not drawn) [Example 8, 4-[1-[(3-fluoropyrrolidin-3-yl)methyl]-5-morpholin-4-ylpyrrolo[3,2-b]pyridin-6-yl]benzonitrile], 100 to 1000 nM. As for `N#Cc1ccc(-c2nc(N3CC[C@@H]4CNC[C@@H]4CC3)ncc2-c2ccc(F)cc2)cc1` [Example 24, 4-{2-[(3aR,8aS)-decahydropyrrolo[3,4-d]azepin-6-yl]-5-(4-fluorophenyl)pyrimidin-4-yl}benzonitrile], the IC50 on full-length human LSD1 was below 100 nM.

With `Cc1ccc(-c2cnc(N3CCC4(CCNC4)CC3)nc2-c2ccc(C#N)cc2)cc1` [Example 39, 4-(2-{2,8-diazaspiro[4.5]decan-8-yl}-5-(4-methylphenyl)pyrimidin-4-yl)benzonitrile], the IC50 on full-length human LSD1 was below 100 nM. Still for that read-out and setting: as for `N#Cc1ccc(-c2nc(NCC3CNCCO3)ncc2-c2ccc(F)cc2)cc1` (racemic) [Example 34, (±)-4-[5-(4-fluorophenyl)-2-[(morpholin-2-ylmethyl)amino]pyrimidin-4-yl]benzonitrile], the figure is 100 to 1000 nM; as for `N#Cc1ccc(-c2nc(NC[C@H]3CCNC3)ncc2Cl)cc1` [Example 17, 4-(5-chloro-2-{[(3S)-pyrrolidin-3-ylmethyl]amino}pyrimidin-4-yl)benzonitrile], 100 to 1000 nM.

Consider `N#Cc1ccc(-c2nc(N3CC4CNCC(C3)O4)ncc2-c2ccc(F)cc2)cc1` [Example 42, 4-[5-(4-fluorophenyl)-2-{9-oxa-3,7-diazabicyclo[3.3.1]nonan-3-yl}pyrimidin-4-yl]benzonitrile], for which the IC50 on full-length human LSD1 was in the range of 100 to 1000 nM. For `Cc1ccc(-c2cnc(NCC3(F)CCNC3)nc2-c2ccc(C#N)cc2)cc1` (single isomer, unassigned; (+)) [Example 28, (+)-4-(2-{[(3-fluoropyrrolidin-3-yl)methyl]amino}-5-(4-methylphenyl)pyrimidin-4-yl)benzonitrile], in the experiment on THP-1 (AML) cells, the IC50 was in the range of 100 to 1000 nM. Consider `Cc1nc2cc(-c3cnc(N4CCC(N)CC4)nc3-c3ccc(C#N)cc3)ccc2n1C` [Example 75, 4-[2-(4-aminopiperidin-1-yl)-5-(1,2-dimethylbenzimidazol-5-yl)pyrimidin-4-yl]benzonitrile], for which the IC50 at full-length human LSD1 is below 100 nM. Same read-out and setting: the same measure for `Cc1ccc(-c2cnc(N3CCC4(CCCN4)CC3)nc2-c2ccc(C#N)cc2)cc1` [Example 40, 4-(2-{1,8-diazaspiro[4.5]decan-8-yl}-5-(4-methylphenyl)pyrimidin-4-yl)benzonitrile]: below 100 nM. With `Cc1ncc(-c2cnc(N3CCC(N)CC3)nc2-c2ccc(C#N)cc2)cn1` [Example 90, 4-[2-(4-aminopiperidin-1-yl)-5-(2-methylpyrimidin-5-yl)pyrimidin-4-yl]benzonitrile], the IC50 at full-length human LSD1 was below 100 nM. For `N#Cc1ccc(-c2cc3c(ccn3C[C@@H]3CCNC3)nc2Cl)cc1` [Example 2], the IC50 in the experiment with THP-1 (AML) cells is 1000 to 10000 nM. On to `Cc1ccc(-c2cnc(NCC3CCNCC3)nc2-c2ccc(C#N)cc2)cc1` [Example 32, 4-[5-(4-methylphenyl)-2-[(piperidin-4-ylmethyl)amino]pyrimidin-4-yl]benzonitrile], for which the IC50 at full-length human LSD1 is below 100 nM.

Take `Cc1ccc(-c2cnc(NC3CCCNC3)nc2-c2ccc(C#N)cc2)cc1` (single isomer, unassigned; (+)) [Example 29, (+)-4-[5-(4-methylphenyl)-2-[(piperidin-3-yl)amino]pyrimidin-4-yl]benzonitrile]: the IC50 in the experiment on THP-1 (AML) cells was 100 to 1000 nM. Consider `COc1ncc(-c2cnc(N3CCC(N)CC3)nc2-c2ccc(C#N)cc2)cn1` [Example 74, 4-[2-(4-aminopiperidin-1-yl)-5-(2-methoxypyrimidin-5-yl)pyrimidin-4-yl]benzonitrile], for which, on full-length human LSD1, the IC50 is below 100 nM. With `Cc1ccc(-c2nc3cnn(C4CCNCC4)c3cc2-c2ccc(C#N)cc2)cc1` [Example 48, 4-[5-(4-methylphenyl)-1-piperidin-4-ylpyrazolo[4,3-b]pyridin-6-yl]benzonitrile], the IC50 with THP-1 (AML) cells is above 10000 nM. For the compound `Cn1ncc2nc(-c3cnc(N4CCC(N)CC4)nc3-c3ccc(C#N)cc3)ncc21` [Example 88, 4-[2-(4-aminopiperidin-1-yl)-5-(1-methylpyrazolo[4,3-d]pyrimidin-5-yl)pyrimidin-4-yl]benzonitrile], at full-length human LSD1, the IC50 fell in the range of 100 to 1000 nM.
